In ChEMBL document CHEMBL1201862, “PubChem BioAssay data set” (2004):
Activity calls are given as the source filed them.

Test system: not listed separately
Experiment: ZM109 Env clade C HIV-1 fusion inhibitors, dose response, HeLa effector, CEM target cells, luciferase, cherry-pick (AID 652058)
Type: functional, cell-based
In the case of `COc1ccc(CCN(Cc2cccs2)S(=O)(=O)c2ccc(-n3cnnn3)cc2)cc1OC`, the AC50 is reported as 20.3 µM (active).
In the case of `CC1CCN(C(=O)c2ncn3c2C(=O)NC[C@@H]3C)CC1`, the AC50 is reported as 15.7 µM (active).
With `CN1C(=O)c2cc(NS(=O)(=O)c3ccccc3F)ccc2OC[C@@H]2O[C@H](CC(=O)NC3Cc4ccccc4C3)CC[C@@H]21` the AC50 was 2.99 µM (active).
For `COc1ccc(NC(=O)Nc2ccc3c(c2)C(=O)N([C@H](C)CO)C[C@H](C)[C@H](CN(C)S(=O)(=O)c2ccc(F)cc2)O3)cc1`, the AC50 was 16.6 µM (active).
With `CN(C[C@H](Cc1ccccc1)N(C[C@H](c1ccccc1)N(CCc1ccccc1)N=O)N=O)N=O` the AC50 was 9.49 µM (active).

Molecular target: T1, Protein skinhead-1 (Caenorhabditis elegans, UniProt P34707)
T1 sequence (P34707 whole entry): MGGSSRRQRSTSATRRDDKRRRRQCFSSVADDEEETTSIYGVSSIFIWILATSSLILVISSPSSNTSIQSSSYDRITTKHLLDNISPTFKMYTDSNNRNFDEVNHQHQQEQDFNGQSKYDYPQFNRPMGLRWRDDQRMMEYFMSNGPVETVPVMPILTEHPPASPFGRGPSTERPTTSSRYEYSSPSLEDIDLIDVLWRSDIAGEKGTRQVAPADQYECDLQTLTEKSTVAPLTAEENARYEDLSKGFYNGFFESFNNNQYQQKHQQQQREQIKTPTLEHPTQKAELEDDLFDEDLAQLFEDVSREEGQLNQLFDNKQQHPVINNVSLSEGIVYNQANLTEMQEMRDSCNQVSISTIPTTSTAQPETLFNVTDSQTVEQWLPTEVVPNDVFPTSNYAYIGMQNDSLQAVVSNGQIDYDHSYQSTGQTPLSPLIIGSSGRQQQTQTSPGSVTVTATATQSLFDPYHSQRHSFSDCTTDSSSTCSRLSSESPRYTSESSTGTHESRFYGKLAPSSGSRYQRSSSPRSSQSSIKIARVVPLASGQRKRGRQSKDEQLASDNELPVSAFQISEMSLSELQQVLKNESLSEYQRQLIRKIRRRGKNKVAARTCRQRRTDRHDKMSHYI
Type: functional
In the case of `CCCCCCn1c(N2CCC(C(N)=O)CC2)nc2c1c(=O)n(C)c(=O)n2C`, the IC50 is reported as > 100 µM (inactive).
In the case of `CCOc1cc2c(cc1OCC)C(C(=O)O)C(c1cc(OC)c(OC)c(OC)c1)N(C)C2=O` (stereo not given), the IC50 is reported as > 100 µM (inactive).
For `CSc1cccc(NC(=O)c2cccc3cccnc23)c1`, the IC50 was 14.7 µM (active).
In the case of `CCOC(=O)c1ccccc1NC(=O)Cc1ccccc1OC`, the IC50 is reported as > 100 µM (inactive).
With `CSc1nsc(SCc2ccc(F)cc2)n1` the IC50 was 18.9 µM (active).
For `O=C(CN1CCOCC1)c1cccc2ccccc12`, the IC50 was > 100 µM (inactive).
For `O=C(c1nc[nH]c1C(=O)N1CCc2ccccc2C1)N1CCc2ccccc2C1`, the IC50 was > 100 µM (inactive).

Molecular target: T2, Replicative DNA helicase DnaB (Mycobacterium tuberculosis, UniProt P9WMR3)
T2 sequence (P9WMR3 whole entry): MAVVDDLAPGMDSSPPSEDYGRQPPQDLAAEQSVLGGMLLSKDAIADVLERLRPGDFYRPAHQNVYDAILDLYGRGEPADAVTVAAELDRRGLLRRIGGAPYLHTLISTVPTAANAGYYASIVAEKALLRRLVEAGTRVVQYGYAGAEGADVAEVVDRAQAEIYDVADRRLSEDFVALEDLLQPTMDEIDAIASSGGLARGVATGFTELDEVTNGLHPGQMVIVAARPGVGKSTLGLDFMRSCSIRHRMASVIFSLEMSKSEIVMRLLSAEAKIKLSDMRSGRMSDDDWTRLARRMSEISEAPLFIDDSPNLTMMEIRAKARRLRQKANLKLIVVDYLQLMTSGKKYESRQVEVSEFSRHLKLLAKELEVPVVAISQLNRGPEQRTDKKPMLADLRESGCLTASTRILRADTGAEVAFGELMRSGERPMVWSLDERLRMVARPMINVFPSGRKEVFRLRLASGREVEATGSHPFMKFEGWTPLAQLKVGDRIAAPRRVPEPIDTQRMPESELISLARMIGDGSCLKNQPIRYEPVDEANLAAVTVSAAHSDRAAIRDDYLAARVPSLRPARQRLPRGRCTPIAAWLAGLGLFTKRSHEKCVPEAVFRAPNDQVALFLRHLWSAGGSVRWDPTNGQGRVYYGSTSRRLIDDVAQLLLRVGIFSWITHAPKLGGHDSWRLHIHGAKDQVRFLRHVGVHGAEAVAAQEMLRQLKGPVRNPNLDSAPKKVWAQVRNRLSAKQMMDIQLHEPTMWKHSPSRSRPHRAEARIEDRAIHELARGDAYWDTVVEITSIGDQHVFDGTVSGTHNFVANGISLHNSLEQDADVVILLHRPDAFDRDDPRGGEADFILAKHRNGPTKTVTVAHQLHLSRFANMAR
Experiment: DnaB intein splicing inhibitors, dose response, biochemical, cell-free fluorescence (AID 449749)
Type: functional
For `CCCCCCn1c(N2CCC(C(N)=O)CC2)nc2c1c(=O)n(C)c(=O)n2C`, the AC50 was > 380 µM (inactive).

Test system: not listed separately
Experiment: inhibitors of HIV Env-driven cell fusion, dose response, cherry-pick (AID 652057)
Type: functional, cell-based
For `COc1ccc(CCN(Cc2cccs2)S(=O)(=O)c2ccc(-n3cnnn3)cc2)cc1OC`, the AC50 was 12.7 µM (active).
For `COc1ccc(S(=O)(=O)N(C)C[C@@H]2Oc3ncc(-c4cc5ccccc5o4)cc3C(=O)N([C@H](C)CO)C[C@@H]2C)cc1`, the AC50 was 10.5 µM (active).
In the case of `CC1CCN(C(=O)c2ncn3c2C(=O)NC[C@@H]3C)CC1`, the AC50 is reported as 3.59 µM (active).
For `CN1C(=O)c2cc(NS(=O)(=O)c3ccccc3F)ccc2OC[C@@H]2O[C@H](CC(=O)NC3Cc4ccccc4C3)CC[C@@H]21`, the AC50 was 2.89 µM (active).
With `COc1ccc(NC(=O)Nc2ccc3c(c2)C(=O)N([C@H](C)CO)C[C@H](C)[C@H](CN(C)S(=O)(=O)c2ccc(F)cc2)O3)cc1` the AC50 was 13 µM (active).
In the case of `CN(C[C@H](Cc1ccccc1)N(C[C@H](c1ccccc1)N(CCc1ccccc1)N=O)N=O)N=O`, the AC50 is reported as 7.62 µM (active).

Molecular target: T3, Ubiquitin-conjugating enzyme E2 N (Homo sapiens, UniProt P61088);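 further: Dose-response confirmation in a TR-FRET assay detecting UBC13-driven polyubiquitin chain formation, inhibition measured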
T3 sequence (P61088 whole entry): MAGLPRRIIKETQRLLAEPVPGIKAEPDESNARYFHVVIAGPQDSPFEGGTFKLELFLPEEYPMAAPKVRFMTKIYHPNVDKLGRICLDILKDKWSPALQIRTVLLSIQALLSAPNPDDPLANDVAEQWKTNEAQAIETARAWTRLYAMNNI
Type: functional
With `Cc1ccc(C(=O)NCCCNCCCN(C)C)cn1` the IC50 was > 20 µM (inactive).
For `CCc1ccc(-c2cc3c(=O)n(CC(=O)NCCCN4CCC(Cc5ccccc5)CC4)nc(C)n3n2)cc1`, the IC50 was > 20 µM (inactive).
For `COc1ccc(C(CNC(=O)c2ccc(-c3nc4ccccc4s3)o2)N2CCCC2)cc1` (stereo not given), the IC50 was > 20 µM (inactive).
In the case of `CN(C)CCCNC(=O)C(=O)NCC1OCCN1S(=O)(=O)c1cccs1` (stereo not given), the IC50 is reported as > 20 µM (inactive).

Molecular target: T4, Protein RecA (Mycobacterium tuberculosis, UniProt P9WHJ3)
T4 sequence (P9WHJ3 whole entry): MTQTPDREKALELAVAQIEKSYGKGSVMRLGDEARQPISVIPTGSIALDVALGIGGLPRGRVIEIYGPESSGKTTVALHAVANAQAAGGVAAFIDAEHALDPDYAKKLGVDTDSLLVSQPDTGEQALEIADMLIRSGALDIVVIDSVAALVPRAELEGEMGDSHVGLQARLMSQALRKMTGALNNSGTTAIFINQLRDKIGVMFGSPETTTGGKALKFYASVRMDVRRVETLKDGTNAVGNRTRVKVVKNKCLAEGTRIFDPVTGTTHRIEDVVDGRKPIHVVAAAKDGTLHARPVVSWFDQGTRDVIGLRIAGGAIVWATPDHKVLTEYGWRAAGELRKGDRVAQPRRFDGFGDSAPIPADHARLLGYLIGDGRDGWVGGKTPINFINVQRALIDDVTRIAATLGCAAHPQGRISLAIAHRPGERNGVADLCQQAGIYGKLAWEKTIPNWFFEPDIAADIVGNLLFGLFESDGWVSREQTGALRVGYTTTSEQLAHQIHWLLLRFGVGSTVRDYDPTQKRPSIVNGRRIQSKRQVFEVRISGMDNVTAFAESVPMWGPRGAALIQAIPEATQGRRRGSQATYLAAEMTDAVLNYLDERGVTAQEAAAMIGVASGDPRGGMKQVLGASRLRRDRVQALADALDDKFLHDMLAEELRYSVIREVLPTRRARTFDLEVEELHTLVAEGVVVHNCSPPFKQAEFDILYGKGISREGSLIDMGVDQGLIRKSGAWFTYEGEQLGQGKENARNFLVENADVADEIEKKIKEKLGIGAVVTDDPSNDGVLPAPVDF
Experiment: Fluorescence Cell-Free Homogeneous Dose Retest to Identify Inhibitors of RecA-Intein Splicing Activity. [Related pubchem assays (depositor defined):AID2097, AID2223, AID489010, AID492950]
Type: functional
In the case of `CCCCCCn1c(N2CCC(C(N)=O)CC2)nc2c1c(=O)n(C)c(=O)n2C`, the EC50 is reported as > 380 µM (inactive).

Test system: not listed separately
Experiment: off-target signal loss in HeLa-CEM21 co-culture – HeLa F-luc CTL cells, cherry-picked, counter-screen for HIV-1 Env fusion inhibitor project, dose response (AID 652040);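 further: potency for signal decrease marking cytotoxic or nonspecific inhibition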
Type: functional, cell-based
With `CC1CCN(C(=O)c2ncn3c2C(=O)NC[C@@H]3C)CC1` the AC50 was 18 µM (active).
In the case of `CN(C[C@H](Cc1ccccc1)N(C[C@H](c1ccccc1)N(CCc1ccccc1)N=O)N=O)N=O`, the AC50 is reported as 35.2 µM (active).

Test system: not listed separately
Experiment: inhibitors of clade B AD8 Env fusion, dose response, cell-based, cherry-pick (AID 652062);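 further: luciferase signal from cell-cell fusion driven by HIV-1 clade B AD8 Env; potency is for inhibitors of fusion seen as a drop in luminescence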
Type: functional
For `COc1ccc(CCN(Cc2cccs2)S(=O)(=O)c2ccc(-n3cnnn3)cc2)cc1OC`, the AC50 was 9.27 µM (active).
In the case of `COc1ccc(S(=O)(=O)N(C)C[C@@H]2Oc3ncc(-c4cc5ccccc5o4)cc3C(=O)N([C@H](C)CO)C[C@@H]2C)cc1`, the AC50 is reported as 16.4 µM (active).
In the case of `CN1C(=O)c2cc(NS(=O)(=O)c3ccccc3F)ccc2OC[C@@H]2O[C@H](CC(=O)NC3Cc4ccccc4C3)CC[C@@H]21`, the AC50 is reported as 8.06 µM (active).
For `COc1ccc(NC(=O)Nc2ccc3c(c2)C(=O)N([C@H](C)CO)C[C@H](C)[C@H](CN(C)S(=O)(=O)c2ccc(F)cc2)O3)cc1`, the AC50 was 27.5 µM (active).
